Assay results as given in the supplement of paper PMC10307832.

Experiments:
Experiment in all cases: relative viability (nuclei count vs DMSO), 5 days (fraction); higher = more cells survive
[1] = compound: C1COCCN1C2=CC(=O)C3=C(O2)C(=CC=C3)C4=CC=CC5=C4SC6=CC=CC=C56
Method in brief: (§1)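 Nuclei counted with MetaXpress define viability as the ratio of treated to vehicle wells, given as a median across plates. The lung cancer cell lines were in 1536-well plates, pinned with five √10-spaced library-drug doses and imaged at 4× after 5 days and Hoechst staining. Plates passed with control CV below 25% and at least one doubling.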

[2] = compound: CCN(CC)CCCCNc1ncc2cc(-c3cc(OC)cc(OC)c3)c(NC(=O)NC(C)(C)C)nc2n1
Method in brief: as §1

[3] = compound: COCC1(CO)C(=O)C2CCN1CC2 [PRIMA-1MET]
Method in brief: as §1

[4] = compound: COc1nc(C)cnc1NS(=O)(=O)c1cccnc1-c1ccc(-c2nnco2)cc1 [Zibotentan]
Method in brief: as §1

[5] = compound: O=c1cc(-c2cccc3c2Sc2ccccc2S3)oc(N2CCOCC2)c1
Method in brief: as §1

| Cell Line | relative viability ([1]; 0.01 µM) | relative viability ([1]; 0.03162 µM) | relative viability ([1]; 0.1 µM) | relative viability ([1]; 0.3162 µM) | relative viability ([1]; 1 µM) | relative viability ([2]; 0.01 µM) | relative viability ([2]; 0.03162 µM) | relative viability ([2]; 0.1 µM) | relative viability ([2]; 0.3162 µM) | relative viability ([2]; 1 µM) | relative viability ([3]; 0.2 µM) | relative viability ([3]; 0.6325 µM) | relative viability ([3]; 2 µM) | relative viability ([3]; 6.325 µM) | relative viability ([3]; 20 µM) | relative viability ([4]; 0.08 µM) | relative viability ([4]; 0.253 µM) | relative viability ([4]; 0.8 µM) | relative viability ([4]; 2.53 µM) | relative viability ([5]; 0.08 µM) | relative viability ([5]; 0.253 µM) | relative viability ([5]; 0.8 µM) | relative viability ([5]; 2.53 µM) | relative viability ([5]; 8 µM) |
| --- | --- | --- | --- | --- | --- | --- | --- | --- | --- | --- | --- | --- | --- | --- | --- | --- | --- | --- | --- | --- | --- | --- | --- | --- |
| NCI-H520 | 1.08 | 1.06 | 0.98 | 1.02 | 0.955 | 0.962 | 1 | 0.965 | 0.763 | 0.306 | 1.09 | 0.722 | 0.678 | 0.817 | 0.163 | 1.14 | 0.924 | 0.801 | 1.15 | 0.95 | 1.2 | 1.12 | 0.906 | 0.997 |
| NCI-H522 | 1.09 | 0.992 | 0.889 | 1.21 | 0.984 | 1.11 | 1.05 | 0.914 | 0.96 | 0.907 | 0.888 | 0.804 | 0.921 | 0.886 | 0.279 | 0.839 | 0.957 | 0.904 | 0.867 | 0.888 | 1.01 | 0.798 | 0.908 | 0.967 |
| NCI-H596 | 0.999 | 0.984 | 0.916 | 1.02 | 0.939 | 0.973 | 1.06 | 0.992 | 0.915 | 0.858 | 0.981 | 0.875 | 0.857 | 1.14 | 0.224 | 0.842 | 1.01 | 1.07 | 1.12 | 0.947 | 1.08 | 1.04 | 0.916 | 0.979 |
| NCI-H647 | 0.911 | 0.918 | 0.867 | 1.05 | 0.986 | 0.94 | 1 | 1.04 | 1.1 | 0.903 | 1.11 | 0.824 | 0.783 | 1.04 | 0.762 | 0.964 | 0.83 | 0.887 | 0.993 | 0.937 | 1.2 | 1.02 | 0.855 | 1.01 |
| NCI-H650 | 0.909 | 1.07 |  | 1.08 | 0.884 | 0.836 | 0.926 | 1.19 | 0.983 | 0.888 | 1.24 |  | 0.913 | 1.03 | 0.128 | 1.02 | 0.792 | 0.988 | 0.912 | 0.979 | 0.857 | 1.01 | 0.76 | 1.1 |
| NCI-H661 | 0.965 | 1.01 | 0.98 | 0.991 | 0.969 | 1.06 | 1 | 1.03 | 1.09 | 0.993 | 1.03 | 0.917 | 0.991 | 1 | 0.957 | 1.01 | 0.912 | 0.951 | 0.987 | 0.996 | 1 | 0.948 | 0.942 | 0.951 |
| NCI-H727 | 0.91 | 0.858 | 0.874 | 0.888 | 0.958 | 0.985 | 0.978 | 0.94 | 1.07 | 0.882 | 1.01 | 0.865 | 0.625 | 0.615 | 0.331 | 0.847 | 0.872 | 0.966 | 1.01 | 0.908 | 1.08 | 0.758 | 0.899 | 0.924 |
